Measured values published in US20130267558A1, “PHARMACEUTICAL COMPOSITION FOR TREATING OR PREVENTING ALCOHOLIC LIVER DISEASES, CONTAINING CILOSTAZOL AS ACTIVE INGREDIENT” (INDUSTRY-ACADEMIC COOPERATION FOUNDATION YEUNGNAM UNIVERSITY, priority 2010, published 2013).

Legend:
[1] = system: primary cultured liver cells; test: MTS assay, viability of primary cultured liver cells treated with ethanol; type: cell-based, Sprague-Dawley rats or C57BL/6 mouse; details: pretreatment 100 μM; ethanol 100, 200 mM for 24 hour; vs DMSO group; FIG. 1
Protocol: Liver cells were separated from Sprague-Dawley rats (8 to 10 weeks) or C57BL/6 (8 to 10 weeks) mouse via in situ collagenase perfusion, and then cultured in DMEM containing 10% FBS, 100 U/ml penicillin, 100 μg/ml streptomycin, 4 mM L-glutamine, and 100 nM dexamethasone. After 3 hours, the culture solution was replaced with DMEM including 0.1% FBS and 10 nM dexamethasone, and then, cultured for 16 hours (overnight). For the treatment, the cells were treated with various concentrations of ethanol (0, 100, 200 mM) alone or together with cilostazol (Otsuka) or pentoxifylline which is used as a therapeutic agent for alcoholic hepatitis, and the resultant cell reactions were compared with each other. After the treatment with ethanol, a culture dish was sealed with a parafilm to prevent evaporation of ethanol. MTS assay was performed in the following manner to identify effects of cilostazol on decreased liver cell viability caused by ethanol. That is, the viability of liver cells was measured by using a MTS assay kit (Promega, Madison, Wis., USA). […] An MTS solution were added to the respective wells and then, the cells were incubated at 37° C. for 4 hours, and absorption of the result was measured at a wavelength of 490 nm.

[2] = system: RAW264.7 macrophage; test: LPS-induced ROS production in RAW264.7 macrophage (H2DCFDA, FACS); type: cell-based; details: pretreatment 100 μM for 1 hour; LPS 50 ng/ml, 4 hours; FIG. 7
Protocol: RAW264.7 cells were obtained from Korean Cell Line Bank and cultured in a DMEM solution containing 10% FBS, 100 U/ml penicillin, and 100 μg/ml streptomycin for use in experiments. To compare direct effects of ethanol with indirect effects caused by endotoxin, effects of LPS were identified. RAW264.7 macrophage prepared as described above was treated with LPS (50 ng/ml) for 0 to 18 hours. Separately, RAW264.7 macrophage prepared as described above was pretreated with cilostazol (100 μM) or pentoxifylline (100 μM) for 1 hour and then, treated with LPS (50 ng/ml) for 4 hours. The RAW264.7 macrophages were treated with H2DCFDA (50 μM) for 40 minutes, and then, the production of ROS was evaluated by using FACS.

[3] = system: caspase-3; test: Caspase-3 colorimetric activity assay kit (DEVD-pNA) in ethanol-treated liver cells; type: cell-based, Sprague-Dawley rats or C57BL/6 mouse; details: liver cells pretreated, FIG. 3
Protocol: (§1) Liver cells were separated from Sprague-Dawley rats (8 to 10 weeks) or C57BL/6 (8 to 10 weeks) mouse via in situ collagenase perfusion, and then cultured in DMEM containing 10% FBS, 100 U/ml penicillin, 100 μg/ml streptomycin, 4 mM L-glutamine, and 100 nM dexamethasone. After 3 hours, the culture solution was replaced with DMEM including 0.1% FBS and 10 nM dexamethasone, and then, cultured for 16 hours (overnight). For the treatment, the cells were treated with various concentrations of ethanol (0, 100, 200 mM) alone or together with cilostazol (Otsuka) or pentoxifylline which is used as a therapeutic agent for alcoholic hepatitis, and the resultant cell reactions were compared with each other. After the treatment with ethanol, a culture dish was sealed with a parafilm to prevent evaporation of ethanol. Also, the caspase-3 activity was measured by using an activity assay kit (R&D kit). That is, caspase-3 activity was measured by using a caspase-3 colorimetric assay kit (R&D system, Minneapolis, Minn.). Liver cells were lysed by using lysis buffer, and then the protein (150 μg) was incubated with DEVD-pNA, a caspase-3 substrate at 37° C. for 2 hours, and then absorption of the product was measured at a wavelength of 405 nm.

[4] = system: TNF-α; test: LPS-stimulated TNF-α production in RAW264.7 macrophage (ELISA); type: cell-based; details: pretreatment, LPS 50 ng/ml, 4 hours, FIG. 5
Protocol: RAW264.7 cells were obtained from Korean Cell Line Bank and cultured in a DMEM solution containing 10% FBS, 100 U/ml penicillin, and 100 μg/ml streptomycin for use in experiments. To compare direct effects of ethanol with indirect effects caused by endotoxin, effects of LPS were identified. RAW264.7 macrophage prepared as described above was treated with LPS (50 ng/ml) for 4 hours, and then, TNF-α level in the cell culture was measured by using ELISA kit (R&D).

[5] = system: caspase-3; test: Caspase-3 activity by Western blotting with cleaved caspase-3 antibody in ethanol-treated liver cells; type: cell-based, Sprague-Dawley rats or C57BL/6 mouse; details: pretreatment 100 μM; ethanol 24 hours; FIG. 2
Protocol: as §1, with “ethanol.” for “ethanol. Also, the caspase-3 activity was measured by using an activity assay kit (R&D kit). That is, caspase-3 activity was measured by using a caspase-3 colorimetric assay kit (R&D system, Minneapolis, Minn.). Liver cells were lysed by using lysis buffer, and then the protein (150 μg) was incubated with DEVD-pNA, a caspase-3 substrate at 37° C. for 2 hours, and then absorption of the product was measured at a wavelength of 405 nm.”

[6] = system: FAS (fatty acid synthase) gene; test: Liver FAS gene expression (real-time PCR) in alcohol-induced acute liver injury animal model; type: in vivo; details: mice; oral 100 mg/kg for 4 days before ethanol 6 g/kg oral; FAS mRNA normalized to β-actin; FIG. 11
Protocol: Eight-week old mice were subjected to binge alcohol drinking to induce liver damage. That is, mice were administered orally 6 g/kg of ethanol once. Cilostazol was orally administered in doses of 50 mg/kg/day and 100 mg/kg/day for 4 days before ethanol administration, and ethanol was orally administered 1 h after the last cilostazol administration. Then, animals were sacrificed at different time after ethanol administration.
Effects of cilostazol on the expression of FAS gene were identified by real-time PCR assay. That is, total RNA was extracted from liver tissues by using a trizol reagent, and then 1 μg of total RNA was reverse-transcribed into cDNA by using high-performance cDNA reverse transcription kit (Applied Biosystems, Foster City, Calif., USA). The PCR reaction was performed such that cDNA, the respective primers were reacted with power SYBR Green PCR master mix (Applied Biosystems) by using real-time PCR 7500 software system (Applied Biosystem). The PCR conditions were initial incubation at 95° C. for 10 minutes, followed by 45 cycles of 95° C. for 15 seconds, 55° C. for 20 seconds, and 72° C. for 35 seconds.
FAS mRNA level was normalized to β-actin mRNA level, and shown in fold increase.

[7] = system: caspase-3; test: Liver caspase-3 activity in alcohol-induced acute liver injury animal model; type: in vivo; details: mice; oral 100 mg/kg for 4 days before ethanol 6 g/kg oral; FIG. 9
Protocol: Also, the caspase-3 activity was measured by using an activity assay kit (R&D kit). That is, caspase-3 activity was measured by using a caspase-3 colorimetric assay kit (R&D system, Minneapolis, Minn.). Liver cells were lysed by using lysis buffer, and then the protein (150 μg) was incubated with DEVD-pNA, a caspase-3 substrate at 37° C. for 2 hours, and then absorption of the product was measured at a wavelength of 405 nm.

[8] = system: primary cultured liver cells; test: Hoechst staining of liver cell apoptosis caused by ethanol; type: cell-based, Sprague-Dawley rats or C57BL/6 mouse; details: pretreatment; Hoechst 33342; FIG. 4
Protocol: Liver cells were separated from Sprague-Dawley rats (8 to 10 weeks) or C57BL/6 (8 to 10 weeks) mouse via in situ collagenase perfusion, and then cultured in DMEM containing 10% FBS, 100 U/ml penicillin, 100 μg/ml streptomycin, 4 mM L-glutamine, and 100 nM dexamethasone. After 3 hours, the culture solution was replaced with DMEM including 0.1% FBS and 10 nM dexamethasone, and then, cultured for 16 hours (overnight).
For the treatment, the cells were treated with various concentrations of ethanol (0, 100, 200 mM) alone or together with cilostazol (Otsuka) or pentoxifylline which is used as a therapeutic agent for alcoholic hepatitis, and the resultant cell reactions were compared with each other. After the treatment with ethanol, a culture dish was sealed with a parafilm to prevent evaporation of ethanol.

Structure (SMILES)	liver cell viability decreased by ethanol, effect of pretreatment [1]	production of ROS induced by LPS, effect of pretreatment [2]	caspase-3 activity (activity assay kit) increased by ethanol, effect of pretreatment [3]	inhibitory effect on LPS-increased TNF-α level in culture media [4]	caspase-3 activity (cleaved caspase-3, Western blot) increased by ethanol, effect of pretreatment [5]	reduction of liver FAS gene expression after ethanol administration [6]	liver caspase-3 activity after ethanol administration [7]	nuclear fragmentation caused by ethanol [8]	decrease of LPS-increased TNF-α level in culture media ([4]; p=0.016)
CC(=O)CCCCn1c(=O)c2c(ncn2C)n(C)c1=O [pentoxifylline]	did not significantly improve the cell viability	neither cilostazol nor pentoxifylline significantly inhibited	reduced caspase-3 activity caused by ethanol, but the inhibitory effect of pentoxifylline was smaller than that of cilostazol	did not show significant inhibitory effects	reduced	–	–	–	–
O=C1CCc2cc(OCCCCc3nnnn3C3CCCCC3)ccc2N1 [cilostazol]	significantly recovered	neither cilostazol nor pentoxifylline significantly inhibited	almost completely inhibited	–	cilostazol showed better inhibitory effects than pentoxifylline	about 30%	significantly reduced	reduced	~50%
